# Organism: Rattus norvegicus
# Experiment: DrugMatrix - Regimen: Daily Repeat
# Type: toxicity, organism-based, Sprague-Dawley
# Design: regimen Daily Repeat, gender Male, age 6-8 weeks
# Details: in vivo, po, route oral GAVAGE, […]; for ABSOLUTE BASOPHIL / ABSOLUTE EOSINOPHIL / ABSOLUTE LYMPHOCYTE / ABSOLUTE MONOCYTE / ABSOLUTE SEGMENTED NEUTROPHIL / BASOPHIL / EOSINOPHIL / ERYTHROCYTE COUNT / HEMATOCRIT / HEMOGLOBIN / LEUKOCYTE COUNT / LYMPHOCYTE / MEAN CORPUSCULAR HEMOGLOBIN / MEAN CORPUSCULAR HEMOGLOBIN CONCENTRATION / MEAN CORPUSCULAR VOLUME / MONOCYTE / NEUTROPHIL / NUCLEATED RED BLOOD CELLS / PLATELET COUNT: tissue Blood; for ALANINE AMINOTRANSFERASE / ALBUMIN / ALKALINE PHOSPHATASE / ASPARTATE AMINOTRANSFERASE / BLOOD UREA NITROGEN / CARBON DIOXIDE / CHLORIDE / CHOLESTEROL / CREATINE PHOSPHOKINASE / CREATININE / GLUCOSE / LACTATE DEHYDROGENASE / LIPASE / PHOSPHORUS / POTASSIUM / SODIUM / TOTAL BILIRUBIN / TOTAL PROTEIN / URIC ACID: tissue Plasma
# [1] = 0 mg/kg, 72 h, dose level Control, time 3 day
# [2] = 0 mg/kg, 120 h, dose level Control, time 5 day
# [3] = 0 mg/kg, dose level Control, time 14 day
# [4] = 1200 mg/kg, 72 h, dose level High, time 3 day
# [5] = 1200 mg/kg, dose level High, time 14 day
smiles,measurement,setting,value
CC[C@H](C)C(=O)O[C@H]1C[C@H](O)C=C2C=C[C@H](C)[C@H](CC[C@@H](O)C[C@@H](O)CC(=O)O)[C@H]21 [PRAVASTATIN],ABSOLUTE BASOPHIL,[1],0 CELLS/uL
same,ABSOLUTE EOSINOPHIL,[1],14 CELLS/uL
same,ABSOLUTE LYMPHOCYTE,[1],11144.67 CELLS/uL
same,ABSOLUTE MONOCYTE,[1],22.5 CELLS/uL
same,ABSOLUTE SEGMENTED NEUTROPHIL,[1],535.5 CELLS/uL
same,BASOPHIL,[1],0%
same,EOSINOPHIL,[1],0.17%
same,ERYTHROCYTE COUNT,[1],5.08 x10E6/uL
same,HEMATOCRIT,[1],32.32%
same,HEMOGLOBIN,[1],12.87 G/DL
same,LEUKOCYTE COUNT,[1],11.72 x10E3/uL
same,LYMPHOCYTE,[1],94.67%
same,MEAN CORPUSCULAR HEMOGLOBIN,[1],25.37 pg
same,MEAN CORPUSCULAR HEMOGLOBIN CONCENTRATION,[1],39.85 G/DL
same,MEAN CORPUSCULAR VOLUME,[1],63.58 fL
same,MONOCYTE,[1],0.17%
same,NEUTROPHIL,[1],5%
same,NUCLEATED RED BLOOD CELLS,[1],0 /100WBC
same,PLATELET COUNT,[1],1084 x10E3/uL
same,ALANINE AMINOTRANSFERASE,[1],67.5 u/L
same,ALBUMIN,[1],4.02 G/DL
same,ALKALINE PHOSPHATASE,[1],374.17 u/L
same,ASPARTATE AMINOTRANSFERASE,[1],83.5 u/L
same,BLOOD UREA NITROGEN,[1],14.5 mg/dL
same,CARBON DIOXIDE,[1],30 mmol/L
same,CHLORIDE,[1],100.5 MEQ/L
same,CHOLESTEROL,[1],71.33 mg/dL
same,CREATINE PHOSPHOKINASE,[1],268.33 u/L
same,CREATININE,[1],0.16 mg/dL
same,GLUCOSE,[1],170.5 mg/dL
same,LACTATE DEHYDROGENASE,[1],81.17 u/L
same,LIPASE,[1],16.67 u/L
same,PHOSPHORUS,[1],10.07 mg/dL
same,POTASSIUM,[1],5.03 MEQ/L
same,SODIUM,[1],142.92 MEQ/L
same,TOTAL BILIRUBIN,[1],0.17 mg/dL
same,TOTAL PROTEIN,[1],5.63 G/DL
same,URIC ACID,[1],0.5 mg/dL
same,ABSOLUTE SEGMENTED NEUTROPHIL,[2],646.83 CELLS/uL
same,NUCLEATED RED BLOOD CELLS,[2],0.17 /100WBC
same,ABSOLUTE BASOPHIL,[3],100 cells/µL
same,ABSOLUTE EOSINOPHIL,[3],57.5 cells/µL
same,ABSOLUTE LYMPHOCYTE,[3],11800 cells/µL
same,ABSOLUTE MONOCYTE,[3],290 cells/µL
same,BASOPHIL,[3],0.47%
same,EOSINOPHIL,[3],0.41%
same,ERYTHROCYTE COUNT,[3],7.31 x10E6/uL
same,HEMATOCRIT,[3],46.8%
same,HEMOGLOBIN,[3],14.69 G/DL
same,LEUKOCYTE COUNT,[3],14.73 x10E3/uL
same,LYMPHOCYTE,[3],80.94%
same,MEAN CORPUSCULAR HEMOGLOBIN,[3],20.09 pg
same,MEAN CORPUSCULAR HEMOGLOBIN CONCENTRATION,[3],31.41 G/DL
same,MEAN CORPUSCULAR VOLUME,[3],64.03 fL
same,MONOCYTE,[3],1.9%
same,NEUTROPHIL,[3],15.1%
same,PLATELET COUNT,[3],1273.62 x10E3/uL
same,ALANINE AMINOTRANSFERASE,[3],56.75 u/L
same,ALBUMIN,[3],3.84 G/DL
same,ALKALINE PHOSPHATASE,[3],530.25 u/L
same,ASPARTATE AMINOTRANSFERASE,[3],78.88 u/L
same,BLOOD UREA NITROGEN,[3],12.25 mg/dL
same,CARBON DIOXIDE,[3],41.38 mmol/L
same,CHLORIDE,[3],102.38 MEQ/L
same,CHOLESTEROL,[3],67.88 mg/dL
same,CREATINE PHOSPHOKINASE,[3],297.25 u/L
same,CREATININE,[3],0.61 mg/dL
same,GLUCOSE,[3],161.88 mg/dL
same,LACTATE DEHYDROGENASE,[3],161.38 u/L
same,LIPASE,[3],16.75 u/L
same,PHOSPHORUS,[3],10.13 mg/dL
same,POTASSIUM,[3],6.73 MEQ/L
same,SODIUM,[3],149 MEQ/L
same,TOTAL BILIRUBIN,[3],0.29 mg/dL
same,TOTAL PROTEIN,[3],6.73 G/DL
same,URIC ACID,[3],1.14 mg/dL
same,ABSOLUTE BASOPHIL,[4],0 CELLS/uL
same,BASOPHIL,[4],0%
same,NUCLEATED RED BLOOD CELLS,"1200 mg/kg, 120 h, dose level High, time 5 day",0 /100WBC
same,ABSOLUTE BASOPHIL,[5],66.7 cells/µL
same,ABSOLUTE EOSINOPHIL,[5],80 cells/µL
same,ABSOLUTE LYMPHOCYTE,[5],4950 cells/µL
same,ABSOLUTE MONOCYTE,[5],1.18 CELLS/uL
same,BASOPHIL,[5],0.33%
same,EOSINOPHIL,[5],0.5%
same,ERYTHROCYTE COUNT,[5],8.11 x10E6/uL
same,HEMATOCRIT,[5],47.4%
same,HEMOGLOBIN,[5],15.87 G/DL
same,LEUKOCYTE COUNT,[5],17.97 x10E3/uL
same,LYMPHOCYTE,[5],29.8%
same,MEAN CORPUSCULAR HEMOGLOBIN,[5],19.53 pg
same,MEAN CORPUSCULAR HEMOGLOBIN CONCENTRATION,[5],33.43 G/DL
same,MEAN CORPUSCULAR VOLUME,[5],58.47 fL

# Source: ChEMBL document CHEMBL3885881, “DrugMatrix”
